{"source": "patent US11963964B2", "about": "“Small molecules for mouse satellite cell proliferation” (President and Fellows of Harvard College, priority 2011, dated 2024)", "key": {"human satellite cells": {"tested_on": "human satellite cells", "assay": "Expansion of human satellite cells", "format": "cell-based"}, "satellite cells [1]": {"tested_on": "satellite cells", "assay": "Satellite cell proliferation screen and dose response, image-based cell count", "set-up": "species or system mouse", "details": "for activity on in vitro satellite cell proliferation (in words): screen hits tested in dose response / retest"}, "satellite cells (SMPs) [2]": {"tested_on": "satellite cells (SMPs)", "assay": "Satellite cell (SMP) proliferation with or without bFGF, 300 cells/well", "format": "cell-based, mouse", "details": "for additive or synergistic action with bFGF: compound plus bFGF versus bFGF alone (FIGS. 15-17, 28, 29)"}, "[3]": {"tested_on": "satellite cells from aged and young tissue", "assay": "Proliferation of satellite cells from aged and young mice", "format": "cell-based, mouse", "details": "aged cells as well as young cells (FIGS. 24, 25)"}, "primary fibroblasts": {"tested_on": "primary fibroblasts", "assay": "Specificity test on Sca1-positive fibroblasts (Ki67)", "format": "cell-based, mouse", "details": "primary fibroblasts (FIG. 23)"}, "satellite cells [4]": {"tested_on": "satellite cells", "assay": "Satellite cell proliferation in combination with TGF-beta inhibitor (Alk5 inhibitor II)", "format": "cell-based, mouse"}, "satellite cells (SMPs) [5]": {"tested_on": "satellite cells (SMPs)", "assay": "Differentiation of compound-treated SMPs into myotubes (myosin heavy chain staining)", "format": "cell-based, mouse", "details": "compound in proliferation conditions, then differentiation media", "method": "CAG-EGFP satellite cells were grown in the inventors' standard proliferation conditions and exposed to compounds for four days. Under the inventors' standard proliferation conditions cells were cultured on laminin-coated plates in Ham's F-10 medium supplemented with 10% heat inactivated horse serum, 100Units/mL penicillin/100 ug/mL streptomycin, and 2 mM L-glutamine. Compounds were added the day after plating. The compounds and media were either refreshed daily or after three days. To differentiate cells and form myotubes, after four days in proliferation conditions, media was switched to high-glucose DMEM supplemented with 10% heat inactivated horse serum, 10% fetal bovine serum, 0.5% chick embryo extract, 100Units/mL penicillin/100 ug/mL streptomycin, and 2 mM L-glutamine. Cultures were grown in differentiation media for 3-5 days until myotube formation was observed, then fixed. Cultures were then switched into differentiation media and cultured another four days. They were then fixed and stained with anti-myosin heavy chain (red channel) and Hoechst (blue channel).\nFor these experiments, 300 cells were plated in each well at Day 0 in our standard proliferation media (10% horse serum in F-10). […]\nThe inventors also assessed effects these compounds were having on the identity of the satellite cells and their ability to differentiate in culture. […]"}, "myoblasts": {"tested_on": "myoblasts", "assay": "Myoblast differentiation in differentiation media (5% horse serum)", "format": "cell-based", "details": "differentiation media comprising 5% horse serum (FIG. 39)"}, "[6]": {"tested_on": "satellite cells from Tg:Pax7-nGFP mice", "assay": "LINCS library screen for satellite cell proliferation (Hoechst 33342 high content imaging)", "format": "cell-based, mouse", "details": "satellite cells cultured for 4 days, 96w plates", "description": "This example includes a list of primary hits from a screen designed to identify compounds that promote satellite cell proliferation in vitro. The satellite cell is a skeletal muscle stem cell responsible for post-natal muscle growth and regeneration. […] The four compound libraries tested, LINCS 1, 2, 3 and 4, were provided to us by the Sorger lab at Harvard Medical School. The Sorger lab is a member of the LINCS (Library of Integrated Network-Based Cellular Signatures) Consortium, which is an NIH initiative aiming to generate public data to further research of therapeutically relevant cellular pathways. LINCS 1, 2, and 4 contain kinase inhibitors, while LINCS 3 contains epigenetic modifiers.\nFIG. 50 identifies small molecules that promote satellite cell proliferation screen in this Example. (A) Chemical screen experimental schematic outlining FACS isolation and compound library treatment of satellite cells. (B) Representative dose response curves from four of the top ten compounds. Top ten compounds were chosen based on highest fold change of cell proliferation relative to vehicle controls. Proliferation was assessed via high content imaging using Hoechst 33342 as a cell marker. (C) Representative fluorescent images of FACS sorted satellite cells from Tg:Pax7-nGFP mice on 96w plates cultured for 4 days and treated with vehicle, compound or positive control (Jak3 inhibitor 6). Optimal treatment concentration for each compound was determined in dose response; 3 uM for XMD8-92, 5 uM for SB23906, 800 nM for XMD11-50, and 400 nM for Vorinostat. Hoechst 33342 was used as a cell marker. Scale bars denote 100 um. (D) Fold change relative to vehicle control for several compounds that promote satellite cell expansion.\nSatellite cells were isolated from intact limb muscle and prepared for fluorescence activated cell sorting (FACS) as described previously (Rocheteau et al., 2012). FACS was performed at Harvard University at the Bauer Flow Cytometry Core Facility on a Beckman Coulter MoFlo Legacy (Beckman Coulter). Satellite cells were sorted into Eppendorf tubes, and plated onto 96 well plates by hand (Greiner). Plates were pre-coated at 37° C. for 4 hours with […] laminin diluted in PBS. Sorted cells were cultured in StemSpan SFEM II basal medium (Stem Cell Technologies) supplemented with 0.05 ng/mL basic fibroblast growth factor (bFGF, Life Technologies). Wells for the positive control were treated with 600 nM Jak3 inhibitor IV (EMD Millipore). For screening and dose response follow up, cells were plated at 150 cells/well.\nThe day cells were plated was considered Day 0. Compounds were added on Day 1. For screening and dose response follow up, cells were incubated without media change until Day 4 and plates were prepared for imaging. […]"}}, "note": "“Also recorded” adds a separate entry of the source.", "data": [{"molecule": "CC(C)(C)c1cc(NC(=O)Nc2ccc(-c3cn4c(n3)sc3cc(OCCN5CCOCC5)ccc34)cc2)no1", "note": "[AC220, quizartinib]", "values": [{"measurement": "expansion of human satellite cells (in words)", "setting": "human satellite cells", "value": "ability to expand human satellite cells at low doses"}]}, {"molecule": "CCCC1O[C@@H]2C[C@H]3[C@@H]4CCC5=CC(=O)C=C[C@]5(C)[C@H]4[C@@H](O)C[C@]3(C)[C@]2(C(=O)CO)O1", "note": "(stereo partly shown) [Budesonide]", "values": [{"measurement": "activity on in vitro satellite cell proliferation (in words)", "setting": "satellite cells [1]", "value": "identified and validated; also recorded: proliferation levels much greater than that seen in the negative control"}, {"measurement": "additive or synergistic action with bFGF", "setting": "satellite cells (SMPs) [2]", "value": "no additional increase"}]}, {"molecule": "C[C@]12O[C@H](C[C@]1(O)CO)n1c3ccccc3c3c4c(c5c6ccccc6n2c5c31)CNC4=O", "note": "[CEP701, Lestaurtinib]", "values": [{"measurement": "proliferation of the input SMP cells (level)", "setting": "satellite cells [1]; retest, DMSO-treated cells 1±0.3 in both trials", "value": "~4.7±1.4"}, {"measurement": "optimum concentration", "setting": "[3]", "value": 50, "unit": "nM"}, {"measurement": "increase in proliferation, CEP701 and bFGF together", "setting": "satellite cells (SMPs) [2]; 0.05 μM CEP701 + 5 ng/mL bFGF daily, 300 cells/well, fixed four days after plating (FIG. 14)", "value": 8, "unit": "fold"}, {"measurement": "effect on fibroblast proliferation", "setting": "primary fibroblasts", "value": "no effect"}]}, {"molecule": "OC[C@H]1O[C@@H](n2cnc3c(NC4CCCC4)ncnc32)[C@H](O)[C@@H]1O", "note": "[N6-cyclopentyladenosine]", "values": [{"measurement": "activity on in vitro satellite cell proliferation (in words)", "setting": "satellite cells [1]", "value": "identified and validated; also recorded: increase in vitro satellite cell proliferation"}, {"measurement": "activity on in vitro satellite cell proliferation (in words)", "setting": "satellite cells [1]; listed as CPA", "value": "proliferation levels much greater than that seen in the negative control"}, {"measurement": "additive effect with TGF-beta inhibitor (Alk5 inhibitor II)", "setting": "satellite cells [4]; compound plus Alk5 inhibitor II (FIGS. 21, 32)", "value": "slight increase in proliferation"}, {"measurement": "increase in the cell number, combination of CPA and bFGF", "setting": "satellite cells (SMPs) [2]; CPA 30 μM + bFGF (FIG. 28)", "value": "fifteen-fold"}, {"measurement": "additive or synergistic action with bFGF", "setting": "satellite cells (SMPs) [2]", "value": "seen to synergize with bFGF"}, {"measurement": "ability of treated cells to differentiate and fuse to form myotubes", "setting": "satellite cells (SMPs) [5]", "value": "able to form myotubes"}, {"measurement": "myoblast differentiation", "setting": "myoblasts", "value": "drive myoblast differentiation"}]}, {"molecule": "COc1nccc(-c2c(-c3ccc(F)cc3)ncn2C2CCC(O)CC2)n1", "note": "(stereo not shown) [SB23906]", "values": [{"measurement": "optimal treatment concentration determined in dose response", "setting": "[6]", "value": 5, "unit": "µM"}]}, {"molecule": "N#C/C(=C\\c1ccc(O)c(O)c1)C(=O)NCc1ccccc1", "note": "[Tyr AG490]", "values": [{"measurement": "myoblast differentiation", "setting": "myoblasts", "value": "drive myoblast differentiation"}]}, {"molecule": "O=C(CCCCCCC(=O)Nc1ccccc1)NO", "note": "[Vorinostat, suberoylanilide hydroxamic acid]", "values": [{"measurement": "optimal treatment concentration determined in dose response", "setting": "[6]", "value": 0.4, "unit": "µM"}]}, {"molecule": "CCOc1cc(N2CCC(O)CC2)ccc1Nc1ncc2c(n1)N(C)c1ccccc1C(=O)N2C", "note": "[XMD8-92]", "values": [{"measurement": "optimal treatment concentration determined in dose response", "setting": "[6]", "value": 3, "unit": "µM"}]}, {"molecule": "COc1cc(C(=O)N2CCC(N3CCN(C)CC3)CC2)ccc1Nc1ncc2c(n1)N(C)c1ccccc1C(=O)N2C", "note": "[XMD11-50]", "values": [{"measurement": "optimal treatment concentration determined in dose response", "setting": "[6]", "value": 0.8, "unit": "µM"}]}, {"molecule": "Alk5 inhibitor II", "values": [{"measurement": "proliferation on addition of Alk5 inhibitor II to the cultures", "setting": "satellite cells [4]; Alk5 inhibitor II alone", "value": "slight increase in proliferation"}]}, {"molecule": "bFGF: basic fibroblast growth factor, positive control", "values": [{"measurement": "number of cells per well at the end of the assay", "setting": "satellite cells [1]; 50 cells/well plated, Day 4, DMSO-treated wells around 50 cells", "value": "150-250 cells"}, {"measurement": "level of proliferation, fold change over the DMSO vehicle control", "setting": "satellite cells [1]; FIG. 3A, positive control, DMSO 1±0.3", "value": "3.4±0.9", "unit": "fold change"}, {"measurement": "level of proliferation, fold change over the DMSO vehicle control (normalized value)", "setting": "satellite cells [1]; FIG. 3B, re-supplied compounds dose response, 50 cells/well, positive control, DMSO 1±0.4", "value": "5.6±1.7", "unit": "fold change"}, {"measurement": "increase in the cell number, bFGF alone", "setting": "satellite cells (SMPs) [2]; FIG. 28", "value": "six-fold"}, {"measurement": "ability of treated cells to differentiate and fuse to form myotubes", "setting": "satellite cells (SMPs) [5]", "value": "able to form large myotubes"}]}]}
